Assay results reported in the supplement of paper PMC11061612.

Legend:
Experiment in all cases: combination Emax (second highest fraction inhibited in the dose matrix, 72 h); higher = more inhibition; extreme values may be limits of the assay
[1] = tested on: 8505C (Thyroid Gland Carcinoma)
Method in brief: (§1)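 Bliss excess equals the observed combination effect minus the expected value EA + EB − EA·EB, where EA and EB are the effects of each agent alone. Combination Emax is the second-highest inhibition within the matrix. Inhibition was scaled from CellTiter-Glo 2.0 luminescence, with 0 set by vehicle wells and 1 by blank wells, after 72 hours of two-drug dosing of cells plated in 1536-well plates.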

[2] = tested on: NCI-H929 (Plasma Cell Myeloma)
Method in brief: as §1

RD (Rhabdomyosarcoma) = tested on: RD (Rhabdomyosarcoma)
Method in brief: as §1

[3] = tested on: SU-DHL-5 (B-Cell Non-Hodgkin's Lymphoma)
Method in brief: as §1

[4] = tested on: NCI-H3122 (Lung Adenocarcinoma)
Method in brief: as §1

[5] = tested on: NCI-H520 (Squamous Cell Lung Carcinoma)
Method in brief: as §1

[6] = tested on: KY821 (Acute Myeloid Leukemia)
Method in brief: as §1

[7] = tested on: NCCIT (Other Solid Carcinomas)
Method in brief: as §1

[8] = tested on: NCI-H526 (Small Cell Lung Carcinoma)
Method in brief: as §1

[9] = tested on: DAN-G (Pancreatic Carcinoma)
Method in brief: as §1

[10] = tested on: COR-L279 (Small Cell Lung Carcinoma)
Method in brief: as §1

[11] = tested on: T-T (Esophageal Squamous Cell Carcinoma)
Method in brief: as §1

[12] = tested on: CW-2 (Colorectal Carcinoma)
Method in brief: as §1

[13] = tested on: MN-60 (B-Lymphoblastic Leukemia)
Method in brief: as §1

[14] = tested on: SNU-398 (Hepatocellular Carcinoma)
Method in brief: as §1

[15] = tested on: PC-3 (Prostate Carcinoma)
Method in brief: as §1

[16] = tested on: MOG-G-CCM (Low Grade Glioma)
Method in brief: as §1

[17] = tested on: SUP-B15 (B-Lymphoblastic Leukemia)
Method in brief: as §1

[18] = tested on: KU812 (Chronic Myelogenous Leukemia)
Method in brief: as §1

G-361 (Melanoma) = tested on: G-361 (Melanoma)
Method in brief: as §1

| SMILES | combination Emax [1] | combination Emax [2] | combination Emax (RD (Rhabdomyosarcoma)) | combination Emax [3] | combination Emax [4] | combination Emax [5] | combination Emax [6] | combination Emax [7] | combination Emax [8] | combination Emax [9] | combination Emax [10] | combination Emax [11] | combination Emax [12] | combination Emax [13] | combination Emax [14] | combination Emax [15] | combination Emax [16] | combination Emax [17] | combination Emax [18] | combination Emax (G-361 (Melanoma)) |
| --- | --- | --- | --- | --- | --- | --- | --- | --- | --- | --- | --- | --- | --- | --- | --- | --- | --- | --- | --- | --- |
| Cc1c2c(nn1C)CSCc1cc(n(C)n1)CSc1cc(c3ccccc3c1)OCCCc1c(C(=O)O)n(C)c3c-2c(Cl)ccc13 [AZD5991] + CC1(C)CCC(CN2CCN(c3ccc(C(=O)NS(=O)(=O)c4ccc(NCC5CCOCC5)c([N+](=O)[O-])c4)c(Oc4cnc5[nH]ccc5c4)c3)CC2)=C(c2ccc(Cl)cc2)C1 [Venetoclax] (first compound max 1 µM, 7x7, partner max 1 µM) | 0.135 | 1 | 0.553 | 1 | 0.275 | 0.201 | 1 | 0.692 | 1 | 0.247 | 0.244 | 0.908 | 0.151 | 0.323 | 1 | 0.171 | 0.433 | 1 | 0.902 | 0.968 |
| Cc1c2c(nn1C)CSCc1cc(n(C)n1)CSc1cc(c3ccccc3c1)OCCCc1c(C(=O)O)n(C)c3c-2c(Cl)ccc13 [AZD5991] + C[C@@H]1COCCN1C2=NC(=NC(=C2)C3(CC3)[S@](=N)(=O)C)C4=C5C=CNC5=NC=C4 [AZD6738] (first compound max 1 µM, 7x7, partner max 10 µM) | 0.34 | 1 | 0.739 | 1 | 0.841 | 0.619 | 1 | 0.864 | 0.833 | 0.737 | 0.822 | 0.932 | 0.443 | 0.399 | 1 | 0.482 | 0.518 | 1 | 0.902 | 1 |
| CN(CCO)CC[C@H](CSc1ccccc1)Nc1ccc(S(=O)(=O)NC(=O)c2ccc(N3CCC([C@@H](O)c4ccccc4-c4ccc(Cl)cc4)CC3)cc2)cc1S(=O)(=O)C(F)(F)F [AZD4320] + Cc1cc2ncnn2cc1Nc1ncc2c(n1)n(C1CCOCC1)c(=O)n2C [AZD7648] (first compound max 1 µM, 7x7, partner max 10 µM) | 0.484 | 0.737 | 0.61 | 0.797 | 0.305 | 0.541 | 1 | 0.243 | 0.908 | 0.474 | 0.976 | 0.106 | 0.154 | 0.226 | 0.261 | 0.213 | 0.558 | 1 | 0.872 | 0.205 |
| CCN(CCO)CCCOc1ccc2c(Nc3cc(CC(=O)Nc4cccc(F)c4)[nH]n3)ncnc2c1 [AZD2811] + C=CCn1c(=O)c2cnc(Nc3ccc(N4CCN(C)CC4)cc3)nc2n1-c1cccc(C(C)(C)O)n1 [AZD1775] (first compound max 1 µM, partner max 1 µM) | 0.188 | 0.323 | 0.347 | 1 | 0.627 | 0.674 | 1 | 0.781 | 0.566 | 0.623 | 0.662 | 0.303 | 0.274 | 0.291 | 0.417 | 0.237 | 0.377 | 0.966 | 0.725 | 0.477 |
| COc1nnc2ccc(N3CCC(c4ccc(OCCN5CCN(C)C(=O)[C@H]5C)cc4)CC3)nn12 [AZD5153] + CC1(C)CCC(CN2CCN(c3ccc(C(=O)NS(=O)(=O)c4ccc(NCC5CCOCC5)c([N+](=O)[O-])c4)c(Oc4cnc5[nH]ccc5c4)c3)CC2)=C(c2ccc(Cl)cc2)C1 [Venetoclax] (first compound max 1 µM, 7x7, partner max 1 µM) | 0.419 | 0.951 | 0.533 | 0.978 | 0.633 | 0.569 | 1 | 0.807 | 0.973 | 0.268 | 0.663 | 0.55 | 0.513 | 0.692 | 0.447 | 0.366 | 0.54 | 1 | 0.924 | 0.617 |
| CN(CCO)CC[C@H](CSc1ccccc1)Nc1ccc(S(=O)(=O)NC(=O)c2ccc(N3CCC([C@@H](O)c4ccccc4-c4ccc(Cl)cc4)CC3)cc2)cc1S(=O)(=O)C(F)(F)F [AZD4320] + CCN(CCO)CCCOc1ccc2c(Nc3cc(CC(=O)Nc4cccc(F)c4)[nH]n3)ncnc2c1 [AZD2811] (first compound max 1 µM, 7x7, partner max 1 µM) | 0.369 | 0.227 | 0.856 | 0.755 | 0.269 | 0.689 | 1 | 0.181 | 0.961 | 0.355 | 1 | 0.282 | 0.12 | 0.238 | 0.593 | 0.366 | 0.773 | 1 | 0.885 | 0.41 |
| Cc1cc2ncnn2cc1Nc1ncc2c(n1)n(C1CCOCC1)c(=O)n2C [AZD7648] + CCN(CCO)CCCOc1ccc2c(Nc3cc(CC(=O)Nc4cccc(F)c4)[nH]n3)ncnc2c1 [AZD2811] (first compound max 10 µM, 7x7, partner max 1 µM) | 0.212 | 0.838 | 0.214 | 0.993 | 0.548 | 0.704 | 0.495 | 0.334 | 0.356 | 0.554 | 0.757 | 0.276 | 0.164 | 0.185 | 0.363 | 0.243 | 0.445 | 0.875 | 0.66 | 0.359 |
| CC1(C)CCC(CN2CCN(c3ccc(C(=O)NS(=O)(=O)c4ccc(NCC5CCOCC5)c([N+](=O)[O-])c4)c(Oc4cnc5[nH]ccc5c4)c3)CC2)=C(c2ccc(Cl)cc2)C1 [Venetoclax] + Cn1cnc2c(F)c(Nc3ccc(Br)cc3Cl)c(C(=O)NOCCO)cc21 [Selumetinib] (first compound max 1 µM, 7x7, partner max 3 µM) | 0.36 | 0.386 | 0.217 | 0.339 | 0.387 | 0.113 | 1 | 0.112 | 0.625 | 0.233 | 0.213 | 0.221 | 0.191 | 0.347 | 0.352 | 0.152 | 0.0923 | 1 | 0.783 | 0.702 |
| Cn1cnc2c(F)c(Nc3ccc(Br)cc3Cl)c(C(=O)NOCCO)cc21 [Selumetinib] + CC(C)n1c(=O)n(C)c2cnc3cc(F)c(-c4ccc(OCCCN5CCCCC5)nc4)cc3c21 [AZD1390] (first compound max 10 µM, 7x7, partner max 0.3 µM) | 0.584 | 0.611 | 0.24 | 0.299 | 0.552 | 0.147 | 0.66 | 0.0608 | 0.0826 | 0.15 | 0.194 | 0.264 | 0.252 | 0.052 | 0.278 | 0.0591 | 0.125 | 0.328 | 0.949 | 0.674 |
| NC1(C(=O)N[C@@H](CCO)c2ccc(Cl)cc2)CCN(c2ncnc3[nH]ccc23)CC1 [Capivasertib] + CC(C)n1c(=O)n(C)c2cnc3cc(F)c(-c4ccc(OCCCN5CCCCC5)nc4)cc3c21 [AZD1390] (first compound max 10 µM, 7x7, partner max 0.3 µM) | 0.195 | 1 | 0.295 | 1 | 0.509 | 0.699 | 0.547 | 0.54 | 0.282 | 0.292 | 0.602 | 0.282 | 0.274 | 0.44 | 0.25 | 0.322 | 0.485 | 0.398 | 0.48 | 0.282 |
| COc1cccc(OCCCN)c1-c1cc(Nc2cnc(C#N)cn2)n[nH]1 [Prexasertib] + O=C(c1cc(Cc2n[nH]c(=O)c3ccccc23)ccc1F)N1CCN(C(=O)C2CC2)CC1 [Olaparib] (first compound max 1 µM, 7x7, partner max 10 µM) | 0.722 | 0.727 | 0.58 | 1 | 0.747 | 0.825 | 1 | 0.621 | 0.912 | 0.801 | 0.923 | 0.795 | 0.301 | 0.424 | 0.383 | 0.43 | 0.673 | 0.98 | 0.796 | 0.668 |
| COc1cccc(OCCCN)c1-c1cc(Nc2cnc(C#N)cn2)n[nH]1 [Prexasertib] + Cc1cc2ncnn2cc1Nc1ncc2c(n1)n(C1CCOCC1)c(=O)n2C [AZD7648] (first compound max 1 µM, 7x7, partner max 10 µM) | 0.483 | 0.847 | 0.571 | 1 | 0.664 | 0.881 | 1 | 0.801 | 0.92 | 0.816 | 0.803 | 0.65 | 0.474 | 0.555 | 0.441 | 0.358 | 0.702 | 0.966 | 0.789 | 0.696 |
